PubChem BioAssay AID1605 (NINDS Approved Drug Screening Program, 2009)

Tested on: Cells expressing FALS mutant SOD1, cell death protection
Assay: protection against FALS mutant SOD1 cell death, familial ALS SOD1 mutant (AID 1605)

Row | Compound | EC50 [µM]
1 | C1CNCCN1 | 7130
2 | O=C1O[C@@H](CO)[C@H](O)[C@@H](O)[C@@H]1O | 9.33
3 | CCCC(=O)Nc1ccc(OCC(O)CNC(C)C)c(C(C)=O)c1 (configuration not stated) | 48.8
4 | CC(NC(=O)C(NC(=O)OCc1ccccc1)C(C)C)C(=O)NC(CC(=O)O)C(=O)OC(F)F (configuration not stated) | 916
5 | CN(C)/N=N/c1nc[nH]c1C(N)=O | 82
6 | CCC(=O)c1c(O)cc(O)cc1O | 157
7 | CN(C)c1ccc(O)c2c1C[C@H]1C[C@H]3[C@H](N(C)C)C(=O)C(C(N)=O)=C(O)[C@@]3(O)C(=O)C1=C2O | 14.4
8 | COC(=O)C1=C(C)NC(C)=C(C(=O)OC)C1c1ccccc1[N+](=O)[O-] | 28.9
9 | CC(N)Cc1ccc2c(c1)OCO2 (configuration not stated) | 2120
10 | CCn1cc(C(=O)O)c(=O)c2cc3c(cc21)OCO3 | 2.38
11 | COc1ccc2[nH]cc(CCNC(C)=O)c2c1 | 178
12 | CC(CCc1ccccc1)NC(C)C(O)c1ccc(O)cc1 (configuration not stated) | 76.9
13 | COC(=O)/C(=C1\OC(=O)C(c2ccccc2)C1=O)c1ccccc1 (configuration not stated) | 3940
14 | Cc1ccc(C(=O)C(C)CN2CCCCC2)cc1 (configuration not stated) | 19.1
15 | Cc1cc(C2CCCCC2)n(O)c(=O)c1 | 30.9
16 | O=c1cc(-c2ccccc2)oc2cc(O)cc(O)c12 | 6.47
17 | O=C(O)CCC(=O)OC[C@@H](NC(=O)C(Cl)Cl)[C@H](O)c1ccc([N+](=O)[O-])cc1 | 1.1
18 | O=C(OCC(O)CO)c1ccccc1Nc1ccnc2cc(Cl)ccc12 (configuration not stated) | 3200
19 | NCCC(O)C(=O)N[C@@H]1C[C@H](N)[C@@H](O[C@H]2O[C@H](CN)[C@@H](O)[C@H](O)[C@H]2N)[C@H](OC2O[C@H](CO)[C@H](O)[C@H]2O)[C@H]1O (some centres not stated) | 0.2

Row | Compound | EC50 [µM]
20 | NC(=O)NC1NC(=O)NC1=O (configuration not stated) | 0.0224
21 | C[C@]12C=CC(=O)C=C1CCC1C2C(=O)C[C@@]2(C)C1CC[C@]2(O)C(=O)CO (some centres not stated) | 2610
22 | CN1C(=O)CN=C(c2ccccc2)c2cc(Cl)ccc21 | 118
23 | Oc1cc(O)c2c(c1)O[C@H](c1ccc(O)c(O)c1)[C@@H](O)C2 | 73.1
24 | CC/C(=C(/CC)c1ccc(O)cc1)c1ccc(O)cc1 | 0.0327
25 | CCC1(c2ccccc2)C(=O)NCNC1=O | 741
26 | C[C@H]1C(=O)O[C@@H]2CCN3CC=C(COC(=O)[C@](C)(O)[C@]1(C)O)[C@H]23 | 239
27 | NCC(CC(=O)O)c1ccc(Cl)cc1 (configuration not stated) | 0.38
28 | O=[N+]([O-])c1cc([As](=O)(O)O)ccc1O | 71.9
29 | CC(C)CC1NC(=O)CNC1=O (configuration not stated) | 0.0222
30 | CCCC(C)C1(CC)C(=O)N=C(S)NC1=O (configuration not stated) | 29.9
31 | NC[C@H]1O[C@H](O[C@H]2C(O[C@@H]3O[C@H](CO)[C@@H](O)[C@H]3O)[C@@H](O)[C@H](N)C[C@@H]2N)[C@H](N)[C@@H](O)[C@@H]1O (some centres not stated) | 5790
32 | CC[C@@H](CO)NC(=O)[C@@H]1C=C2c3cccc4[nH]cc(c34)C[C@H]2N(C)C1 | 2890
33 | CN1CC[C@]23c4c5ccc(O)c4O[C@H]2C(=O)CCC3[C@H]1C5 (some centres not stated) | 3410
34 | Nc1nc2ncc(CNc3ccc(C(=O)N[C@@H](CCC(=O)O)C(=O)O)cc3)nc2c(=O)[nH]1 | 785
35 | CN[C@@H]1[C@H](O)[C@H](NC)[C@H]2O[C@@]3(O)C(=O)C[C@@H](C)O[C@H]3OC2[C@H]1O (some centres not stated) | 0.0222
36 | CC[C@@H]1C(=O)OC[C@@H]1Cc1cncn1C | 3060
37 | COc1cc(C)c2c(=O)cc(-c3ccccc3)oc2c1 | 45.8
